One assay deals with mice (C57BL/6, female). As to the kind of experiment: Assessment of anagen phase induction and promotion in shaved mice. Type of assay: in vivo. The protocol: Experimentation for effects of inducing and promoting an anagen phase (that is, hair growth period) was performed with 7 weeks-old mice (C57BL/6, female) widely used in assessment of activity for anagen phase induction. First, using an electric shaver, hair on the dorsal part of a mouse was removed. Each mouse was weighed and all mice were divided into groups, each group having five (5) mice, in order to uniformly disperse body weights of the mice. Hair cut regions were coated with an excipient, control and test medicine, respectively. In this regard, the excipient was 95% ethanol, the control was 2% minoxidil, and the test medicine used herein was the compound in Example 8 diluted with 95% ethanol to have a final concentration of 0.5%. Using a brush, each of the above test samples was sufficiently applied to the dorsal part of each mouse once per day.

The subject of a further assay is 5α-reductase. As to the kind of experiment: 5α-reductase inhibitory efficacy: DHT produced in testosterone-stimulated dermal papilla cells (DHT ELISA). The assay is classed as cell-based. The conditions noted are these: 50 nM testosterone, 24 hours, produced DHT relative to control. The protocol:
After seeding 1 ml of dermal papilla cells (DPCs) by 5×10^5/ml into each well of a 24-well plate, then incubating the same for 24 hours, each of the reaction products prepared according to procedures described in Examples 1 to 72 was added in amounts of 50 μg/ml, 10 μg/ml and 0 μg/ml, respectively, to individual wells. After 1 hour, the wells were subjected to stimulation using 50 nM testosterone (DMSO dissolved). The supernatant was discarded 24 hours after culturing, to thus obtain DPc pellets. A content of dihydrotestosterone (DHT) (DB52021, Hamburg, Germany) was determined by means of enzyme-linked immune-sorbent assay. DPCs cell pellets were seeded in an amount of 100 μL into each of Dihydrotestosterone (DHT) ELISA microtiter strips coated with rabbit anti-DHT antibody, 25 μL of DHT antiserum was seeded in every well, and subjected to a reaction at 2 to 8° C. for 15 to 20 hours, followed by washing the same three times. Thereafter, 100 μL of DHT-HRP enzyme conjugate was seeded in every well and reacted on a shaker at room temperature for 30 minutes, followed by washing the same three times. Furthermore, 100 μL of substrate was seeded in every well and reacted on a shaker at room temperature for 20 to 30 minutes. Then, the product was treated using 100 μL stop solution, and subjected to measurement of absorbance at 450 nm to express an amount of produced DHT by the absorbance (three times repeated). An amount of produced DHT relative to a control was calculated in terms of an inhibitory rate (%), and results thereof are shown in Table 3 below.

Setting [1] is: 20 days after experimentation, topical once per day on shaved dorsal part, five mice per group, Minoxidil 2%, Example 8 0.5% in 95% ethanol.

As to `Nc1cc(N2CCCCC2)nc(N)[n+]1[O-]` [Minoxidil, minoxidil, reference compound], in the assay with mice (C57BL/6, female) (setting [1]), the “Number of mouse graded + (improved)” value is 1, the “Number of mouse graded ++ (remarkably improved)” value is 2, the “Number of mouse graded ± (slightly improved)” value was 1 and the “Number of mouse graded − (not changed)” value is recorded as 1.

On to “β-amyrin laurate [Compound in Example 6]”, for which the “5α-reductase inhibitory rate (%)” value in the assay with 5α-reductase (sample concentration 10 μg/ml) was determined as 43%; in the assay on 5α-reductase (sample concentration 50 μg/ml) it was 59%.

As for “β-amyrin stearate [Compound in Example 8]”, the “5α-reductase inhibitory rate (%)” value in the assay on 5α-reductase (sample concentration 10 μg/ml) was 48%. In the assay on 5α-reductase (sample concentration 50 μg/ml), the “5α-reductase inhibitory rate (%)” value was determined as 63%. Also, the “hair growth in the hair cut region (in words)” value in the assay with mice (C57BL/6, female) (0.5% in 95% ethanol, topical once per day, Table 4 and FIG. 1) was “rapid hair growth”. In addition, in the assay on mice (C57BL/6, female) (setting [1]), the “Number of mouse graded + (improved)” value came to 1, the “Number of mouse graded ++ (remarkably improved)” value was found to be 3 and the “Number of mouse graded ± (slightly improved)” value is reported as 1.

Consider “β-boswellic acid stearate [Compound in Example 31]”, for which the “5α-reductase inhibitory rate (%)” value with 5α-reductase (sample concentration 10 μg/ml) was determined as 31%; with 5α-reductase (sample concentration 50 μg/ml), 47%.

The values are drawn from patent publication US20150246058A1, “COMPOSITION FOR PREVENTING HAIR LOSS AND ACCELERATING HAIR GROWTH” (RNS CO., LTD., priority 2012, published 2015).
